US20250250298A1, “ONCOLYTIC PEPTIDE AND USE THEREOF” (Rise Biopharmaceuticals Inc., priority 2022, published 2025)
Where a SMILES comes first, the peptide text is derived from it. Where no end group is shown, it is not given here.

Columns and labels:
[1] = system: HFW (Human fibroblast); test: MTT cytotoxicity, HFW; format: cell-based; conditions: 24 hours incubation
Source text: (§1) The MTT assay is a colorimetric method for measuring the activity of enzymes in living cells that reduces Thiazolyl blue tetrazolium bromide (MTT) to formazan dyes showing a purple color. In this embodiment, a colorimetric 3-(4.5-dimethylthiazol-2-yl)-2.5-diphenyltetrazodium bromide (MTT) viability assay was used to assess the in vitro cytotoxicity of oncolytic peptides.
(§2) The half inhibition concentration (IC50) is the concentration required by the oncolytic peptides to reach fifty percent inhibition. In one embodiment, the oncolytic peptides were used for IC50 test via MTT colorimetric assay.
(§3) Human lung cancer lines PC9 and A549 and murine pancreatic cancer cell line Panc02 were cultured in RPMI medium supplemented with 10% fetal bovine serum and antibiotic in this embodiment. Additionally, murine hepatoma cell line Hepa 1-6, murine melanoma cell line B16-F10, murine fibrosarcoma cell line MN-11, murine mammary cancer cell line E0771 and human diploid fibroblast (HFW) were cultured in DMEM medium supplemented with 10% fetal bovine serum and antibiotic. Cells were cultured in a humidified incubator containing 5% CO2 at 37° C.
(§4) All cancer cell lines were seeded in a 96-well plate with a concentration of 5000-8000 cells/100 μl/well and incubated for 24 hrs. After medium was removed, 100 μl fresh medium containing peptide (ranging from 50 μM to 0.8 μM) was added to the wells. Following 24 hours incubation, fresh medium with MTT (0.5 mg/ml) was replaced and incubated for 3 hours. After medium/MTT was removed, DMSO was added at 100 μl for dissolving the formazan crystal. Cell survival rate was calculated by measuring the absorbance at 540 nm using a Multi-labeled Microplate Reader (Sunrise™, TECAN).

[2] = system: HUVEC (Human Umbilical Vein Endothelial (Cell)); test: MTT cytotoxicity, HUVEC; format: cell-based; conditions: 24 hours incubation
Source text: as §1, §2, §4

[3] = system: EO771 (Murine mammary adenocarcinoma); test: MTT cytotoxicity, EO771; format: cell-based; conditions: EO771, 24 hours incubation
Source text: as §1, §2, §3, §4

[4] = system: Hepa I-6 (Murine hepatocellular carcinoma); test: MTT cytotoxicity, Hepa 1-6; format: cell-based; conditions: Hepa I-6, 24 hours incubation
Source text: as §1, §2, §3, §4

[5] = system: B16-F10 (Murine skin malignant melanoma); test: MTT cytotoxicity, B16-F10; format: cell-based; conditions: B16-F10, 24 hours incubation
Source text: as §1, §2, §3, §4

[6] = system: MN-11 (Murine fibrosarcoma); test: MTT cytotoxicity, MN-11; format: cell-based; conditions: MN-11, 24 hours incubation
Source text: as §1, §2, §3, §4

[7] = system: Panc02; test: MTT cytotoxicity, Panc02; format: cell-based, murine; conditions: Panc02, 24 hours incubation
Source text: as §1, §2, §3, §4

[8] = system: PC9 (Human non-small cell lung cancer cell); test: MTT cytotoxicity, PC9; format: cell-based; conditions: PC9, 24 hours incubation
Source text: as §1, §2, §3, §4

[9] = system: A549 (Human non-small cell lung cancer cell); test: MTT cytotoxicity, A549; format: cell-based; conditions: A549, 24 hours incubation
Source text: as §1, §2, §3, §4

[10] = system: C9 (Human oral cancer cell); test: MTT cytotoxicity, C9; format: cell-based; conditions: C9, 24 hours incubation
Source text: as §1, §2, §4

[11] = system: OECM-1 (Human oral cancer cell); test: MTT cytotoxicity, OECM-1; format: cell-based; conditions: OECM-1, 24 hours incubation
Source text: as §1, §2, §4

[12] = system: SAS (Human tongue carcinoma); test: MTT cytotoxicity, SAS; format: cell-based; conditions: 24 hours incubation
Source text: as §1, §2, §4

[13] = system: HepG2 Cancer Cells (Human hepatocellular carcinoma); test: MTT cytotoxicity, HepG2; format: cell-based; conditions: HepG2, 24 hours incubation
Source text: as §1, §2, §4

[14] = system: NCI-N87 (Human gastric carcinoma); test: MTT cytotoxicity, NCI-N87; format: cell-based; conditions: NCI-N87, 24 hours incubation
Source text: as §1, §2, §4

[15] = system: HCT-15 (Human colorectal cancer); test: MTT cytotoxicity, HCT-15; format: cell-based; conditions: HCT-15, 24 hours incubation
Source text: as §1, §2, §4

[16] = system: A375 (human malignant melanoma); test: MTT cytotoxicity, A375; format: cell-based; conditions: A375, 24 hours incubation
Source text: as §1, §2, §4

[17] = system: RBC (Human blood cell); test: Cytotoxicity, RBC; format: cell-based
Source text: as §2

[18] = Peptide stability in serum; format: in vitro ADME; conditions: 25% (vol/vol) bovine calf serum
Description: Since this kind of peptide is highly toxic, the hope is that the peptide can be decomposed after inducing cancer cells to release danger-associated molecular patterns (DAMPs), and will not stay in the body for too long. After exposure to 25% (vol/vol) bovine calf serum, the residues of peptides were analyzed by liquid chromatography, and the stability at different time points was calculated.

[19] = read-out: Serum stability (residual peptide)

| Compound | IC50 [1] | IC50 [2] | IC50 [3] | IC50 [4] | IC50 [5] | IC50 [6] | IC50 [7] | IC50 [8] | IC50 [9] | IC50 [10] | IC50 [11] | IC50 [12] | IC50 [13] | IC50 [14] | IC50 [15] | IC50 [16] | IC50 [17] | Serum stability (residual peptide) ([18]; 0 hr) | remaining at 0.5 h [18, 19] | remaining at 2 h [18, 19] | also measured |
| --- | --- | --- | --- | --- | --- | --- | --- | --- | --- | --- | --- | --- | --- | --- | --- | --- | --- | --- | --- | --- | --- |
| KKKKRRKKWRKWLKWLAKK-NH2 [SEQ ID NO: 7, KKKK-RR-KK-WRK-WLK-WLA-KK-NH2] | 12 µM | 3.95 µM | 6.16 µM | 4.92 µM | 15.3 µM | 5.73 µM | 10.6 µM | 2.93 µM | 3.3 µM | 9.06 µM | 10.2 µM | 7.67 µM | 12.1 µM | 6.16 µM | 7.13 µM | 4.01 µM | 50.5 µM | 100.00% | 101% | 72.1% | Serum stability (residual peptide) ([18]; 1 hr): 123.30%; remaining at 4 h [18, 19]: 59.5%; remaining at 6 h [18, 19]: 54.4%; remaining at 8 h [18, 19]: 44.4%; metabolised at 8 h ([18]; after eight hours, read-out: Decrease of peptide in serum): ~56%; metabolised at 4 h ([18]; at the fourth hour, read-out: Decrease of peptide in serum): ~40% |
| CC(C)C[C@H](NC(=O)[C@H](Cc1ccc2ccccc2c1)NC(=O)[C@H](CCCCN)NC(=O)[C@H](CC(C)C)NC(=O)[C@H](Cc1c[nH]c2ccccc12)NC(=O)[C@H](CCCCN)NC(=O)[C@H](CCCNC(=N)N)NC(=O)[C@H](Cc1c[nH]c2ccccc12)NC(=O)[C@H](CCCCN)NC(=O)[C@H](CCCCN)NC(=O)[C@H](CCCNC(=N)N)NC(=O)[C@H](CCCNC(=N)N)NC(=O)[C@H](CCCCN)NC(=O)[C@H](CCCCN)NC(=O)[C@H](CCCCN)NC(=O)[C@@H](N)CCCCN)C(=O)N[C@@H](C)C(=O)N[C@@H](CCCCN)C(=O)N[C@@H](CCCCN)C(N)=O [SEQ ID NO: 8, KKKK-RR-KK-WRK-WLK-Nal-LA-KK-NH2] (HELM PEPTIDE1{K.K.K.K.R.R.K.K.W.R.K.W.L.K.[O=C([C@H](Cc1ccc2ccccc2c1)N[*:1])[*:2]].L.A.K.K.[am]}$$$$V2.0; N-terminus assumed) | 7.29 µM | 5.6 µM | 3.3 µM | 3.59 µM | 9.73 µM | 3.49 µM | 2.66 µM | 1.58 µM | 2.3 µM | 5.3 µM | 5.97 µM | 3.98 µM | 8.18 µM | 3.16 µM | 3.16 µM | 3.59 µM | 37.6 µM | 100.00% | 105% | 106% | remaining at 1 h ([18]; 1 hr, read-out: Serum stability (residual peptide)): 77.4%; remaining at 4 h [18, 19]: 70.4%; remaining at 6 h [18, 19]: 71.3%; remaining at 8 h [18, 19]: 66.5% |
